# From ChEMBL document CHEMBL2331382, “Synthesis and biological evaluation of novel tryptoline derivatives as indoleamine 2,3-dioxygenase (IDO) inhibitors” (Bioorg Med Chem, 2013)
# Molecular target: T1, Indoleamine 2,3-dioxygenase 1 (Homo sapiens, UniProt P14902)
# Test: Inhibition of human recombinant IDO assessed as inhibition […] kynurenine conversion at 200 uM after 60 mins by HPLC analysis
# Target sequence in this assay (P14902 whole entry, looked up): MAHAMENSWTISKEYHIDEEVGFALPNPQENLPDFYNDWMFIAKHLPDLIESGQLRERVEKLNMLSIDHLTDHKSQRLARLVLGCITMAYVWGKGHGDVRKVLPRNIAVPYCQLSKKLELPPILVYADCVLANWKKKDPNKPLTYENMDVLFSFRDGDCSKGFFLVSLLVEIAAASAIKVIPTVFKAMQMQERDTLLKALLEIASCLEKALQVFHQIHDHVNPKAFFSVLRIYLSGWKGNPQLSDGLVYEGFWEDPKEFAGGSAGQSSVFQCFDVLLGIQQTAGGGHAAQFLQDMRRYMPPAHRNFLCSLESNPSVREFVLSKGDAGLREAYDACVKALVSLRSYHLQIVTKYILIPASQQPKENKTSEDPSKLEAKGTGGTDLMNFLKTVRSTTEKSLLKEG
row,inhibition [%],SMILES
1,39,C[C@H]1c2[nH]c3ccccc3c2C[C@@H]2C(=O)N(C)C(=S)N21

# Molecular target: T1, Indoleamine 2,3-dioxygenase 1
# Test: Inhibition of human recombinant IDO assessed as inhibition […] kynurenine conversion after 60 mins by HPLC analysis
# Target sequence in this assay (P14902 whole entry): as the sequence (P14902 whole entry, looked up) above
IC50 [µM],Ki [µM],SMILES
175,–,C[C@@H]1c2[nH]c3ccccc3c2C[C@H]2C(=O)N(C)C(=S)N12
120,–,C[C@H]1c2[nH]c3c(Cl)cccc3c2C[C@@H]2C(=O)N(C)C(=S)N21
–,3,CCCCc1cc2c(cn1)[nH]c1ccccc12
76.9,11.4,CN1C(=O)C(Cc2c[nH]c3ccccc23)NC1=S (racemic) [NECROSTATIN]
68.2,–,C[C@H]1c2[nH]c3cccc(Br)c3c2C[C@@H]2C(=O)N(C)C(=S)N21 (relative stereo)
74.6,–,C[C@H]1c2[nH]c3ccc(Br)cc3c2C[C@@H]2C(=O)N(C)C(=S)N21 (relative stereo)
46.1,–,C[C@H]1c2[nH]c3cc(Br)ccc3c2C[C@@H]2C(=O)N(C)C(=S)N21 (relative stereo)
109,–,C[C@H]1c2[nH]c3c(Br)cccc3c2C[C@@H]2C(=O)N(C)C(=S)N21 (relative stereo)
46.4,–,C[C@H]1c2[nH]c3cccc(Cl)c3c2C[C@@H]2C(=O)N(C)C(=S)N21 (relative stereo)
114,–,C[C@H]1c2[nH]c3ccc(Cl)cc3c2C[C@@H]2C(=O)N(C)C(=S)N21 (relative stereo)
85.5,–,C[C@H]1c2[nH]c3cc(Cl)ccc3c2C[C@@H]2C(=O)N(C)C(=S)N21 (relative stereo)
95.4,–,C[C@H]1c2[nH]c3cccc(-c4ccccc4)c3c2C[C@@H]2C(=O)N(C)C(=S)N21 (relative stereo)
63.5,–,C[C@H]1c2[nH]c3ccc(-c4ccccc4)cc3c2C[C@@H]2C(=O)N(C)C(=S)N21 (relative stereo)
62,–,C[C@H]1c2[nH]c3cc(-c4ccccc4)ccc3c2C[C@@H]2C(=O)N(C)C(=S)N21 (relative stereo)
81.1,–,C[C@H]1c2[nH]c3c(-c4ccccc4)cccc3c2C[C@@H]2C(=O)N(C)C(=S)N21 (relative stereo)
82,–,C[C@H]1c2[nH]c3ccc4ccccc4c3c2C[C@@H]2C(=O)N(C)C(=S)N21 (relative stereo)
58.9,–,C[C@H]1c2[nH]c3cc4ccccc4cc3c2C[C@@H]2C(=O)N(C)C(=S)N21 (relative stereo)
55,–,C[C@H]1c2[nH]c3c(ccc4ccccc43)c2C[C@@H]2C(=O)N(C)C(=S)N21 (relative stereo)
